Measured values taken from a melting point compilation (Tetko et al.; mined from patent text by program, amines drawn as free bases though some values may be those of a salt).

Row | melting point [°C] | SMILES
1 | 83 to 84 | COc1cccc(C(=O)N(C)C)c1-c1ccccc1
2 | 98 to 104 | Cc1cccc2c1c(C(=O)CC1CCCCCC1)cn2CCO
3 | 148 to 150 | O=C1N(Cc2ccc(Br)cc2)c2ccccc2C12COc1cc3c(cc12)OCO3 (configuration not stated)
4 | 108 to 110 | N#Cc1ccc(N)c(F)c1F
5 | 188 to 192 | O=C(O)C(=O)c1ccc(OCC(=O)N2CCN(c3ccccc3)CC2)cc1
6 | 41 | [N-]=[N+]=NS(=O)(=O)c1cccc(C(=O)Cl)c1
7 | 177 to 179 | CCCCCCCCCCCCCCCCCCS(=O)(=O)c1cc(C(=O)O)c2c(c1)c(=O)on2C
8 | 116 | O=C(O)CCC1C2CC3CC(C2)CC1C3 (configuration not stated)
9 | 206 to 210 | CCOC(=O)c1c2n(c3c(F)c(F)c(F)cc3c1=O)C(C)S2 (configuration not stated)
10 | 143 | CC(=O)c1ccccc1-c1cccc(C(=O)O)c1
11 | 251 to 252 | O=C1NC(Cc2ccccc2)C(=O)N/C1=C\c1ccc(O)cn1 (configuration not stated)
12 | 115 to 116 | COC(=O)[C@H](CC(=O)OC(C)(C)C)NC(=O)c1cccc(NC(=O)OCc2ccccc2)c1
13 | 145 to 147 | CC(=O)N1CC(=O)N/C(=C\c2ncoc2C(C)(C)C)C1=O
14 | 90 to 91 | C=CCN1C(=O)c2cccc3c(N(C)CCO)ccc(c23)C1=O
15 | 96 to 98 | CCCCN(CCCC)c1nc(-c2ccc(OC)cc2)nc2sc(C#N)c(C)c12
16 | 203 to 206 | c1ccc2c(c1)N=C(N1CCNCC1)c1sccc1N2
17 | 107 to 109 | CCCCCCCCc1ccc(CCC(CC)(COC(C)=O)NC(C)=O)cc1 (configuration not stated)
18 | 85 to 92 | COc1ccc(S(=O)(=O)N(CCC(=O)N2CCC(C(=O)O)CC2)C(CCc2ccccc2)C(=O)NO)cc1 (configuration not stated)
19 | 64 to 66 | NCc1ccccc1C(F)(F)C(F)(F)c1ccc(F)cc1
20 | 168 to 170 | CC#CN(NC(=O)c1ccc(Cl)c(S(N)(=O)=O)c1)c1ccccc1
21 | 214 to 215 | O=c1[nH]c2ccccc2c(=O)n1S(=O)(=O)c1ccc(Cl)cc1
22 | 138 to 140 | CC(=O)Oc1c(Cl)ccc2c(-c3ccccc3)c(Sc3ccccc3)c(Sc3ccccc3)c(-c3ccccc3)c12
23 | 90 to 91.5 | CN1CCN(C(=O)c2cc(=O)c3c(OCCOc4ccccc4)cccc3o2)CC1
24 | 195 to 196 | Cc1cc(S(N)(=O)=O)ccc1NC(=O)CNc1ccccc1
25 | 124 to 128 | Cc1c(C)c2c(c(C)c1O)CC[C@@](C)(CO)O2

Row | melting point [°C] | SMILES
26 | 99 to 101 | CN1c2ccccc2CCC1c1ccccc1 (configuration not stated)
27 | 181 to 182 | O=C(Nc1ccc2nc(CN3CCCCC3)ccc2c1)c1ccc(-c2ccc(F)cc2F)cc1
28 | 219 to 220 | CC1CN(C(P(=O)(O)O)P(=O)(O)O)CC(C)S1 (configuration not stated)
29 | 255 to 256 | COC(=O)Cc1cc(=O)[nH]c2cc(F)ccc12
30 | 208 to 211 | Cc1cnn(-c2ccccc2)c1-c1nn(-c2cccc(C(F)(F)F)c2)ccc1=O
31 | 114 to 115 | NCc1ccc2[nH]ccc2c1
32 | 91 | O=C(/C=C/[C@H]1CC[C@@H]2OC(=O)C[C@@H]21)COc1ccccc1
33 | 223 to 225 | COc1cccc2c1nc(C(F)F)n2-c1nc(NC2CCN(C(=O)OC(C)(C)C)CC2)c(N)c(N2CCOCC2)n1
34 | 175 to 185 | O=C(O)c1cccc(-c2ccc3c(c2)C(Oc2cccc(C(F)(F)F)c2)CC3)c1 (configuration not stated)
35 | 165 to 167 | COc1ccc(S(=O)(=O)N(Cc2ccccc2)c2c(C(=O)O)cnc3c2c(C)nn3C)cc1
36 | 144 | CC(C)(C)c1cc2c(cc1O)OC(C(=O)O)=CO2
37 | 63 to 65 | Fc1cc(Br)ccc1-c1ccc(Cl)cc1Cl
38 | 206 to 208 | CC(=O)NCc1ccc2c(c1)[C@@H](N1CCCC1=O)[C@H](O)C(C)(C)O2 (relative stereo)
39 | 129 to 130 | CC(NC1=C(N=Nc2ccccc2)C(=O)SC1)c1ccccc1 (configuration not stated)
40 | 123 | Brc1ccc2c(c1)COC(N[C@@H]1CCc3ccccc31)=N2
41 | 148 to 149 | CC(=O)OCCc1ccc(NC(=O)OCc2ccccc2)cc1
42 | 140 to 145 | CC1(C)CN=C(NCC2CCCc3ccc(S(=O)(=O)c4ccccc4)cc32)NC1 (configuration not stated)
43 | 130 to 132 | COc1ccc(C2Cc3ccccc3N=C(C)N2C)cc1 (configuration not stated)
44 | 174 to 179 | Nc1nc(-c2ccc(CCCCN3CCN(c4cccc(C(F)(F)F)c4)CC3)cc2)cs1
45 | 286 to 288 | CC(C)(C)c1cc(C(=O)c2ncc[nH]2)cc(C(C)(C)C)c1O
46 | > 280 | NC(=O)c1c(Br)cc(Br)c(C(=O)O)c1Br
47 | 117 to 118 | COCOc1cc(OC)ccc1C(=O)c1cccc(OCc2nc(-c3ccccc3)oc2C)c1
48 | 38.5 to 39 | CC(C)[C@@H]1C[C@@H]([C@H](CC2CCCCC2)N=[N+]=[N-])OC1=O
49 | 60 | CCCC1CCC(/C(F)=C(\F)c2ccc(OCC)c(F)c2F)CC1 (configuration not stated)
50 | 204 to 205 | N#Cc1c[nH]c2c(NS(=O)(=O)c3cccc(Cl)c3)cccc12

Row | melting point [°C] | SMILES
51 | 256 | O=C(Nc1cccc(S(=O)(=O)NCc2cccnc2)c1)c1cnn2c(C(F)F)cc(-c3ccc(C(F)(F)F)cc3)nc12
52 | 60 to 63 | CNCCN1CCn2c1nc1ccccc12
53 | 81 | Cc1nc(-c2cccnc2)cs1
54 | 85 to 87 | CCOC(=O)c1c(C)nc2c(nc(C)n2C)c1OCC
55 | 205 to 206 | O=C(c1ccc(-c2ccccc2)cc1)N1CCc2cn[nH]c2-c2ncccc21
56 | 209 to 211 | O=C(Nc1c(C(O)(C(F)(F)F)C(F)(F)F)ccc2ccccc12)c1ccccc1Cl
57 | 89.5 to 90.5 | O=Cc1ccc(OCC=Cc2ccccc2)cc1
58 | 215 | CNc1cc(NC)nc(NC)n1
59 | 49 | CCCCc1ccc(-c2ccc(CCc3ccc(OC)cc3)cc2)c(F)c1
60 | 105 to 110 | C=CCOc1nc(N)c2ccccc2n1
61 | 97 to 99 | CCCCCCCCOc1c(Cl)c(Sc2ccccc2N)c(OCCCCCCCC)c2c1C(=N)NC2=N
62 | 93.5 to 94 | N#Cc1ccc(Cn2cc(C#N)nn2)cc1
63 | 105 | CCCCNC(=S)Nc1ccccc1N1CCOCC1
64 | 176 to 178 | Cc1ccc(-c2nc(C(F)(F)F)nn2-c2ccc(S(C)(=O)=O)cc2)cc1
65 | 137 to 138 | CCOC(=O)c1cn(Cc2ccccc2)nc1OCc1ccc(OCc2nc(-c3ccco3)oc2C)cc1OC
66 | 141 to 143 | CCOC(=O)c1cc2cc(C)cc(C)c2[nH]1
67 | 204 to 207 | Cc1c(-c2ccccc2)nc2cc(Cl)ccc2c1C(=O)N[C@@H](C)C1CCCCC1
68 | 143 to 144 | Cc1c(C(=O)N[C@@H](Cc2ccc(OCc3ccccc3)cc2)C(=O)O)oc2cc(-c3ccc(Cl)cc3)ccc12
69 | 110 to 112 | COC(=O)c1ccc(CN2C(=O)C(CCOc3ccc(CCNC(=O)OC(C)(C)C)cc3)Oc3ccccc32)cc1 (configuration not stated)
70 | 104 to 106 | CCN1CCC(OC)(c2cccc(F)c2F)C1 (single isomer, unassigned; (+))
71 | 114 | CCOP(=O)(Cc1cc(C(C)(C)C)c(O)c(C(C)(C)C)c1)OCC
72 | 142 to 144 | CC(=O)Nc1cccc(NC(=O)Cc2ccc(-n3c(-c4cccnc4N)nc4ccc(-c5cccnc5)nc43)cc2)c1
73 | 157 to 159 | O=C(O)C=CC(=S)c1ccc(-c2ccccc2)cc1
74 | 194 to 195 | Oc1ccc(-c2ccc(-c3ccc(F)cc3)nc2-c2ccc(OCCN3CCCCC3)cc2)cc1
75 | 177 to 179 | O=Cc1cn(C(c2ccccc2)(c2ccccc2)c2ccccc2)c(F)n1

Row | melting point [°C] | SMILES
76 | 187 to 188 | CC(C)n1c(C=O)c(-c2ccc(F)cc2)c(-c2ccccc2)c1C(N)=O
77 | 150 to 152 | CC1(C)OC(c2ccc(S(C)(=O)=O)cc2)=C(c2ccc(O)cc2)C1=O
78 | 164 to 166 | N#CN1CCN2c3ccccc3Cc3ccccc3C2C1 (configuration not stated)
79 | 221 to 223 | NC(=O)c1sc2nc(N3CCC(NCC(O)c4cccc5c4OCO5)CC3)cc(C(F)(F)F)c2c1N (configuration not stated)
80 | 207 to 210 | Cc1ccc(Nc2nc(=O)cc(N)n2-c2ccccc2)cc1
81 | 232 | O=C(NC1CCC(c2cc(Nc3cccc(C(F)(F)F)c3)n[nH]2)C1)C1CCC1 (configuration not stated)
82 | 184 | COC(=O)N1C(=O)c2ccccc2C1=O
83 | 65 to 67 | Cc1cc(OS(=O)(=O)C(F)(F)F)cc(=O)n1C
84 | 114 | CC1(C)C2=C(CCC2=O)c2ccccc21
85 | 234 to 236 | CSc1ncc2cc(Oc3ccccc3F)c(=O)n(C)c2n1
86 | 98 to 99 | O=[N+]([O-])c1ccc(N2CCN(CCO)CC2)cc1
87 | 419 | c1ccc(C2=c3cc4c(cc3Oc3ccccc32)=C(c2ccccc2)c2ccccc2O4)cc1
88 | 281 to 282 | COc1cc(Nc2c(C#N)cnc3cc(-c4cc5ccccc5o4)sc23)c(Cl)cc1Cl
89 | 193 | O=C(Oc1ccccc1)OC1c2nccnc2C(=O)N1c1ccc(Cl)cn1 (configuration not stated)
90 | 173 to 178 | N=C(N)NCCc1ccc(OCCC2Oc3ccccc3N(Cc3ccc4ccccc4c3)C2=O)cc1 (configuration not stated)
91 | 132 to 135 | CCOC(=O)c1cnn2c1c(NC1CCCCC1)nc1ccccc12
92 | 67.2 | C#CCOc1cc(Oc2c(F)cccc2F)ncn1
93 | 254 | Cc1cc2n(C)c(=O)c3cnc(Cl)cc3n2n1
94 | 165 to 168 | Cc1ccc2c(c1Cl)C(=O)N(C1(C#N)CCCCC1)C2=O
95 | 172 to 174 | O=C(O)c1cnc2sccc2c1Cl
96 | 213 to 214 | COc1cc(CCNCc2ccccc2)c(CC(=O)O)cc1OC
97 | 201 to 203 | CC(Cl)(Cl)C(NC(=O)c1cccs1)NC(=NC#N)Nc1ccc(Cl)nc1 (configuration not stated)
98 | 116 to 118 | Cc1ccc(S(=O)(=O)n2ccnc2C(O)(c2ccccc2)c2ccc(Cl)cc2)cc1 (configuration not stated)
99 | 154 to 156 | COC(=O)C1=Cc2cc(-c3ccc(N4CCOCC4)cc3)ccc2SCC1
100 | 162 | COc1ccc2cc(C(C)C(=O)NCCN(O)C(N)=O)ccc2c1 (configuration not stated)

Row | SMILES | melting point [°C]
101 | CCOC(=O)c1ccc(C#CC2(O)CN3CCC2CC3)cc1 (configuration not stated) | 176 to 177
102 | Clc1nccnc1N1CCNCC1 | 47 to 53
